Source: ChEMBL document CHEMBL3217499, “Membrane disrupting antimicrobial peptide dendrimers with multiple amino termini” (Medchemcomm, 2012)
Converted amounts (≈) assume the structure as drawn. Values belong to the molecule of their own block, whether it stands above or below them. Where a SMILES comes first, the peptide text is derived from it. Bridges are numbered along the chain shown (N, C = ends). Roman numbers before positions name the chains, in order. Side-chain parts run from the residue outwards. The star is where a group is joined. X3 = CC(=O)N[C@@H](CC(C)C)C(=O)NCCCC[C@H](NC(=O)[C@H](CC(C)C)NC(C)=O)C(=O)*

How the values were obtained:
Staphylococcus aureus [1] = test: Antibacterial activity against methicillin-resistant Staphylococcus aureus 42080 by broth microdilution assay; type: functional
Pseudomonas aeruginosa [2] = test: Antibacterial activity against Pseudomonas aeruginosa PAO1 after 18 to 24 hrs by broth microdilution assay; type: functional
Escherichia coli [3] = test: Antibacterial activity against Escherichia coli DH5[alpha] after 18 to 24 hrs by broth microdilution assay; type: functional
Enterococcus faecalis [4] = test: Antibacterial activity against Enterococcus faecalis Van BE80-8 by broth microdilution assay; type: functional
Enterococcus faecalis [5] = test: Antibacterial activity against Enterococcus faecalis ATCC 29212 by broth microdilution assay; type: functional
Pseudomonas aeruginosa [6] = test: Antibacterial activity against Pseudomonas aeruginosa K799/WT by broth microdilution assay; type: functional
[7] = Hemolytic activity in human RBC after 4 hrs; type: ADME, cell-based; conditions: erythrocyte
Pseudomonas aeruginosa [8] = test: Antibacterial activity against Pseudomonas aeruginosa K799/61 by broth microdilution assay; type: functional
Escherichia coli [9] = test: Antibacterial activity against Escherichia coli ATCC 25922 by broth microdilution assay; type: functional
Pseudomonas aeruginosa [10] = test: Antibacterial activity against Pseudomonas aeruginosa ATCC 27853 by broth microdilution assay; type: functional
Pseudomonas aeruginosa [11] = test: Antibacterial activity against Pseudomonas aeruginosa PAO1 HS by broth microdilution assay; type: functional
Staphylococcus aureus [12] = test: Antibacterial activity against Staphylococcus aureus ATCC 29213 by broth microdilution assay; type: functional
Pseudomonas aeruginosa [13] = test: Antibacterial activity against Pseudomonas aeruginosa 8S/H by broth microdilution assay; type: functional
Bacillus subtilis = test: Antibacterial activity against Bacillus subtilis BR151 after 18 to 24 hrs by broth microdilution assay; type: functional

SMILES: CC(C)C[C@H](N)C(=O)NCCCC[C@H](NC(=O)[C@@H](N)CC(C)C)C(=O)N[C@@H](Cc1ccccc1)C(=O)NCCCC[C@H](NC(=O)[C@H](Cc1ccccc1)NC(=O)[C@H](CCCCNC(=O)[C@@H](N)CC(C)C)NC(=O)[C@@H](N)CC(C)C)C(=O)N1CCC[C@H]1C(=O)NCCCC[C@H](NC(=O)[C@@H]1CCCN1C(=O)[C@H](CCCCNC(=O)[C@H](Cc1ccccc1)NC(=O)[C@H](CCCCNC(=O)[C@@H](N)CC(C)C)NC(=O)[C@@H](N)CC(C)C)NC(=O)[C@H](Cc1ccccc1)NC(=O)[C@H](CCCCNC(=O)[C@@H](N)CC(C)C)NC(=O)[C@@H](N)CC(C)C)C(=O)N[C@@H](CCCCN)C(N)=O
MIC (Staphylococcus aureus [1]): > 32 µg/mL
MIC (Pseudomonas aeruginosa [2]): 66 µg/mL (≈ 24.2 µM)
MIC (Escherichia coli [3]): 19 µg/mL (≈ 6.96 µM)
MIC (Enterococcus faecalis [4]): > 32 µg/mL
MIC (Enterococcus faecalis [5]): > 32 µg/mL
MIC (Pseudomonas aeruginosa [6]): > 32 µg/mL
MHC [7]: > 10000 µg/mL
MIC (Pseudomonas aeruginosa [8]): > 32 µg/mL
MIC (Escherichia coli [9]): > 32 µg/mL
MIC (Pseudomonas aeruginosa [10]): > 32 µg/mL
MIC (Pseudomonas aeruginosa [11]): > 32 µg/mL
MIC (Staphylococcus aureus [12]): > 32 µg/mL
MIC (Pseudomonas aeruginosa [13]): > 32 µg/mL
MIC (Bacillus subtilis): 2 µg/mL (≈ 0.732 µM)

MIC (Pseudomonas aeruginosa [2]): 60 µg/mL (≈ 22.3 µM)
MIC (Escherichia coli [3]): 15 µg/mL (≈ 5.57 µM)
MIC (Bacillus subtilis): 2.5 µg/mL (≈ 0.928 µM)
SMILES: CC(C)C[C@@H](N)C(=O)NCCCC[C@H](NC(=O)[C@H](N)CC(C)C)C(=O)N[C@H](CC(C)C)C(=O)NCCCC[C@H](NC(=O)[C@@H](CC(C)C)NC(=O)[C@H](CCCCNC(=O)[C@H](N)CC(C)C)NC(=O)[C@H](N)CC(C)C)C(=O)N[C@H](Cc1ccccc1)C(=O)NCCCC[C@H](NC(=O)[C@@H](Cc1ccccc1)NC(=O)[C@H](CCCCNC(=O)[C@@H](CC(C)C)NC(=O)[C@H](CCCCNC(=O)[C@H](N)CC(C)C)NC(=O)[C@H](N)CC(C)C)NC(=O)[C@@H](CC(C)C)NC(=O)[C@H](CCCCNC(=O)[C@H](N)CC(C)C)NC(=O)[C@H](N)CC(C)C)C(=O)N[C@H](CCCCN)C(N)=O
MHC [7]: > 10000 µg/mL

MIC (Pseudomonas aeruginosa [2]): 60 µg/mL (≈ 22 µM)
MIC (Escherichia coli [3]): 11 µg/mL (≈ 4.03 µM)
MIC (Bacillus subtilis): 4.4 µg/mL (≈ 1.61 µM)
SMILES: CC(C)C[C@@H](N)C(=O)NCCCC[C@H](NC(=O)[C@H](N)CC(C)C)C(=O)N[C@H](Cc1ccccc1)C(=O)NCCCC[C@H](NC(=O)[C@@H](Cc1ccccc1)NC(=O)[C@H](CCCCNC(=O)[C@H](N)CC(C)C)NC(=O)[C@H](N)CC(C)C)C(=O)N1CCC[C@@H]1C(=O)NCCCC[C@H](NC(=O)[C@H]1CCCN1C(=O)[C@H](CCCCNC(=O)[C@@H](Cc1ccccc1)NC(=O)[C@H](CCCCNC(=O)[C@H](N)CC(C)C)NC(=O)[C@H](N)CC(C)C)NC(=O)[C@@H](Cc1ccccc1)NC(=O)[C@H](CCCCNC(=O)[C@H](N)CC(C)C)NC(=O)[C@H](N)CC(C)C)C(=O)N[C@H](CCCCN)C(N)=O
MHC [7]: > 10000 µg/mL

SMILES: CC(=O)N[C@@H](CC(C)C)C(=O)NCCCC[C@H](NC(=O)[C@H](CC(C)C)NC(C)=O)C(=O)N[C@@H](Cc1ccccc1)C(=O)NCCCC[C@H](NC(=O)[C@H](Cc1ccccc1)NC(=O)[C@H](CCCCNC(=O)[C@H](CC(C)C)NC(C)=O)NC(=O)[C@H](CC(C)C)NC(C)=O)C(=O)N1CCC[C@H]1C(=O)NCCCC[C@H](NC(=O)[C@@H]1CCCN1C(=O)[C@H](CCCCNC(=O)[C@H](Cc1ccccc1)NC(=O)[C@H](CCCCNC(=O)[C@H](CC(C)C)NC(C)=O)NC(=O)[C@H](CC(C)C)NC(C)=O)NC(=O)[C@H](Cc1ccccc1)NC(=O)[C@H](CCCCNC(=O)[C@H](CC(C)C)NC(C)=O)NC(=O)[C@H](CC(C)C)NC(C)=O)C(=O)N[C@@H](CCCCN)C(N)=O (I: Ac-LK([Leu-Ac])FK([Phe-X3])PKK-NH2 / II: Ac-LK([Leu-Ac])FK([Phe-X3])P; amide I:6-II:C)
MIC (Staphylococcus aureus [1]): > 32 µg/mL
MIC (Enterococcus faecalis [4]): > 32 µg/mL
MIC (Enterococcus faecalis [5]): > 32 µg/mL
MIC (Pseudomonas aeruginosa [6]): > 32 µg/mL
MIC (Pseudomonas aeruginosa [8]): > 32 µg/mL
MIC (Escherichia coli [9]): > 32 µg/mL
MIC (Pseudomonas aeruginosa [10]): > 32 µg/mL
MIC (Pseudomonas aeruginosa [11]): > 32 µg/mL
MIC (Staphylococcus aureus [12]): > 32 µg/mL
MIC (Pseudomonas aeruginosa [13]): > 32 µg/mL

SMILES: CC(=O)N[C@@H](CC(C)C)C(=O)NCCCC[C@H](NC(=O)[C@H](CC(C)C)NC(C)=O)C(=O)N[C@@H](CC(C)C)C(=O)NCCCC[C@H](NC(=O)[C@H](CC(C)C)NC(=O)[C@H](CCCCNC(=O)[C@H](CC(C)C)NC(C)=O)NC(=O)[C@H](CC(C)C)NC(C)=O)C(=O)N[C@@H](Cc1ccccc1)C(=O)NCCCC[C@H](NC(=O)[C@H](Cc1ccccc1)NC(=O)[C@H](CCCCNC(=O)[C@H](CC(C)C)NC(=O)[C@H](CCCCNC(=O)[C@H](CC(C)C)NC(C)=O)NC(=O)[C@H](CC(C)C)NC(C)=O)NC(=O)[C@H](CC(C)C)NC(=O)[C@H](CCCCNC(=O)[C@H](CC(C)C)NC(C)=O)NC(=O)[C@H](CC(C)C)NC(C)=O)C(=O)N[C@@H](CCCCN)C(N)=O (I: Ac-LK([Leu-Ac])LK([Leu-X3])FKK-NH2 / II: Ac-LK([Leu-Ac])LK([Leu-X3])F; amide I:6-II:C)
MIC (Staphylococcus aureus [1]): > 32 µg/mL
MIC (Enterococcus faecalis [4]): > 32 µg/mL
MIC (Enterococcus faecalis [5]): > 32 µg/mL
MIC (Pseudomonas aeruginosa [6]): > 32 µg/mL
MIC (Pseudomonas aeruginosa [8]): > 32 µg/mL
MIC (Escherichia coli [9]): > 32 µg/mL
MIC (Pseudomonas aeruginosa [10]): > 32 µg/mL
MIC (Pseudomonas aeruginosa [11]): > 32 µg/mL
MIC (Staphylococcus aureus [12]): > 32 µg/mL
MIC (Pseudomonas aeruginosa [13]): > 32 µg/mL
